This passage reports % of control and dTM results from ChEMBL document CHEMBL5465560, “Selectivity Literature for EUbOPEN Chemogenomic Library” (2024).

Test [1] concerns the target T1, NUAK family SNF1-like kinase 1 (Homo sapiens) (UniProt O60285).
T1 sequence (whole entry): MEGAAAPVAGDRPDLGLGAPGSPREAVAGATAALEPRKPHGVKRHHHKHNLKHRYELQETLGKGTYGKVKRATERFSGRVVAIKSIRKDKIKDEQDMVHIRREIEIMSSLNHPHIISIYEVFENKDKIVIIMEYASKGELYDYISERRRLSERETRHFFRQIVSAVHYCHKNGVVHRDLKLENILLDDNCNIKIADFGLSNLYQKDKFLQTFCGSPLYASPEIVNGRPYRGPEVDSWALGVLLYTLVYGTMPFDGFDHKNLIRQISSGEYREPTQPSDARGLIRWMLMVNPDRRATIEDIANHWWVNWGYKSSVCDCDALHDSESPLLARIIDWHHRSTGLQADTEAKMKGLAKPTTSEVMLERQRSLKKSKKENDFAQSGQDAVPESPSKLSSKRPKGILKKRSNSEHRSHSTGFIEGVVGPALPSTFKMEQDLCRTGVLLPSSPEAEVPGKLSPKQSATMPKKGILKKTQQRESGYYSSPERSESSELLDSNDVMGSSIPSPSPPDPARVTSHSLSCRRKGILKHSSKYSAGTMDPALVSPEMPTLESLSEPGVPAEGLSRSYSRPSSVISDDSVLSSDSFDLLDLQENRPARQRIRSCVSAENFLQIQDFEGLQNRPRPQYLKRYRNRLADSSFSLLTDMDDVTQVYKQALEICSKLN
As to the kind of experiment: Selectivity interaction (Ambit KINOMEscan and KiNATiv profiling in Jurkat cells) EUB0000090b NUAK1. Format: cell-based. The settings on record: at 1 µM.

Test [2] has as its target T2, Ephrin type-A receptor 6 (Homo sapiens) (UniProt Q9UF33).
T2 sequence (whole entry): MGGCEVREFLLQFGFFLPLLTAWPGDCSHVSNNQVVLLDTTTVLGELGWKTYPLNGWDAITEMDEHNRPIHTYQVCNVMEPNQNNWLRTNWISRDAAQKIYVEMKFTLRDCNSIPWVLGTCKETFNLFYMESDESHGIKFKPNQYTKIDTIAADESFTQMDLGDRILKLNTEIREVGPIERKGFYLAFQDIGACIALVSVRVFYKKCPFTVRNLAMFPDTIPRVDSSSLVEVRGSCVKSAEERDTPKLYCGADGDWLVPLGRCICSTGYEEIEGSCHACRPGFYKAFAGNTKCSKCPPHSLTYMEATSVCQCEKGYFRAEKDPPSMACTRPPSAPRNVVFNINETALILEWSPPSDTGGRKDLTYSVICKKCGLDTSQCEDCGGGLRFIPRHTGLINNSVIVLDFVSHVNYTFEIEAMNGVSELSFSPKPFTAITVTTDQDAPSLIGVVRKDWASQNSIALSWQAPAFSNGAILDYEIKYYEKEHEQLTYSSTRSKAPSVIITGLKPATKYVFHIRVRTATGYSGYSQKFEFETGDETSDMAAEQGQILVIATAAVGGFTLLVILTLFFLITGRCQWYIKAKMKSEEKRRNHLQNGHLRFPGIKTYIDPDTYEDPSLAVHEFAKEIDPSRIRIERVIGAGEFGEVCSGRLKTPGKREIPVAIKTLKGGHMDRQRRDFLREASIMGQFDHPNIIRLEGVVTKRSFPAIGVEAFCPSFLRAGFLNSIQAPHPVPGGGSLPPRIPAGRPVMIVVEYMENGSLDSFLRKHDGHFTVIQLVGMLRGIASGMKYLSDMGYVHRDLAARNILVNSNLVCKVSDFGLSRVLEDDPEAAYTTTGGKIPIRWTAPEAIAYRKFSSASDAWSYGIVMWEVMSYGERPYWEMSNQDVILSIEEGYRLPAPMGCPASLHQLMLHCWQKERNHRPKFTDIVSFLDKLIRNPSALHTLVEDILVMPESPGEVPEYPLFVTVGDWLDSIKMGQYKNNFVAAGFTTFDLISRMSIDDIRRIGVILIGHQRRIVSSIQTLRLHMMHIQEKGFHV
The settings on record: at 10 µM.

Test [3] deals with Transcription initiation factor TFIID subunit 1 (Homo sapiens) (UniProt P21675). As to the kind of experiment: Selectivity interaction (Bromodomain panel (DSF asssay)) EUB0000270b TAF1.
Test [4] addresses T3, Membrane-associated tyrosine- and threonine-specific cdc2-inhibitory kinase (Homo sapiens) (UniProt Q99640).
T3 sequence (whole entry): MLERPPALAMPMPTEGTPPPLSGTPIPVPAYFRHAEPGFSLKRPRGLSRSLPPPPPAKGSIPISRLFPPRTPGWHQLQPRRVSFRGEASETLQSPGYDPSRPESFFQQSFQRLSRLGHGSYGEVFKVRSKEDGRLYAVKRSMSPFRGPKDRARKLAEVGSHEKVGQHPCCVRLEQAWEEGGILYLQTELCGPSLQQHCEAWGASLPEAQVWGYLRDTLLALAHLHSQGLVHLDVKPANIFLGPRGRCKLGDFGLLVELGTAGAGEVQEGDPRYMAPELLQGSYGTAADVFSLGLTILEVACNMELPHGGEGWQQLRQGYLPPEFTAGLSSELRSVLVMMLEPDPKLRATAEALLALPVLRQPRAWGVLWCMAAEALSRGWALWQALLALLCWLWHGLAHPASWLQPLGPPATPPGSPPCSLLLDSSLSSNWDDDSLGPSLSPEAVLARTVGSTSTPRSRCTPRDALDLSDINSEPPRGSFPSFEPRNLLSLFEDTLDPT
Nature of the test: Selectivity interaction (KinomeScan (DiscoverX)) EUB0000092b PKMYT1. The settings on record: at 10 µM.

The target in test [5] is Bone morphogenetic protein receptor type-1B (Homo sapiens, UniProt O00238). As to the kind of experiment: Selectivity interaction (KinomeScan (DiscoverX)) EUB0000618a BMPR1B. The settings on record: at 10 µM.
Test [6] addresses T2, Ephrin type-A receptor 6 (Homo sapiens). As to the kind of experiment: Selectivity interaction (KinomeScan (DiscoverX)) EUB0000618a EPHA6. The settings on record: at 10 µM.
The target of test [7] is Serine/threonine-protein kinase 10 (Homo sapiens) (UniProt O94804). The settings on record: at 10 µM.
Chain of Serine/threonine-protein kinase 10 (Homo sapiens) (O94804 whole entry, looked up): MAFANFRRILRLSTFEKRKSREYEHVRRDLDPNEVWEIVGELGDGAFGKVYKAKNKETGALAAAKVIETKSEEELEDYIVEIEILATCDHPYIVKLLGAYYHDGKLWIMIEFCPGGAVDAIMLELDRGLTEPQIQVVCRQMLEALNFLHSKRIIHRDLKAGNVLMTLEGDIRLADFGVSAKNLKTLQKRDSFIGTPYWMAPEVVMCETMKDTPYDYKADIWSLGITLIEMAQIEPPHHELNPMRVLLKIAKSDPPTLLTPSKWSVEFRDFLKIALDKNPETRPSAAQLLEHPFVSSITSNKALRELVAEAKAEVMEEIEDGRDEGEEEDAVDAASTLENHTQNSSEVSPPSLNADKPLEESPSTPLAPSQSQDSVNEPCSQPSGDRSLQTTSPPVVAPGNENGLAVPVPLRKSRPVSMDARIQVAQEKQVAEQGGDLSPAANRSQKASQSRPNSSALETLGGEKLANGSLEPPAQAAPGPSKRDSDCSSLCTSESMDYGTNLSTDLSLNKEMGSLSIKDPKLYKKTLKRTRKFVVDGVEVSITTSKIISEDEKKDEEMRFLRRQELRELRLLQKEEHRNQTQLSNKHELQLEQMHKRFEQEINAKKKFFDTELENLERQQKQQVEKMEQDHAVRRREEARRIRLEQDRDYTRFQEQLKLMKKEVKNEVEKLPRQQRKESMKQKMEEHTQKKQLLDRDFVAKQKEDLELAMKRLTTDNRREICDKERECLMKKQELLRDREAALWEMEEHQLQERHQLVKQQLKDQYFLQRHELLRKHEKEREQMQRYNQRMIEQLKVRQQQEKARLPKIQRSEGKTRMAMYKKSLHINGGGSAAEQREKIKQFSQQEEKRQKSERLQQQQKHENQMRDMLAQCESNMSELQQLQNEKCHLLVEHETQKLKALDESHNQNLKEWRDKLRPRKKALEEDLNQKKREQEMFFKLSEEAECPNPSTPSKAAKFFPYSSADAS

Chain of Transcription initiation factor TFIID subunit 1 (Homo sapiens) (P21675 whole entry): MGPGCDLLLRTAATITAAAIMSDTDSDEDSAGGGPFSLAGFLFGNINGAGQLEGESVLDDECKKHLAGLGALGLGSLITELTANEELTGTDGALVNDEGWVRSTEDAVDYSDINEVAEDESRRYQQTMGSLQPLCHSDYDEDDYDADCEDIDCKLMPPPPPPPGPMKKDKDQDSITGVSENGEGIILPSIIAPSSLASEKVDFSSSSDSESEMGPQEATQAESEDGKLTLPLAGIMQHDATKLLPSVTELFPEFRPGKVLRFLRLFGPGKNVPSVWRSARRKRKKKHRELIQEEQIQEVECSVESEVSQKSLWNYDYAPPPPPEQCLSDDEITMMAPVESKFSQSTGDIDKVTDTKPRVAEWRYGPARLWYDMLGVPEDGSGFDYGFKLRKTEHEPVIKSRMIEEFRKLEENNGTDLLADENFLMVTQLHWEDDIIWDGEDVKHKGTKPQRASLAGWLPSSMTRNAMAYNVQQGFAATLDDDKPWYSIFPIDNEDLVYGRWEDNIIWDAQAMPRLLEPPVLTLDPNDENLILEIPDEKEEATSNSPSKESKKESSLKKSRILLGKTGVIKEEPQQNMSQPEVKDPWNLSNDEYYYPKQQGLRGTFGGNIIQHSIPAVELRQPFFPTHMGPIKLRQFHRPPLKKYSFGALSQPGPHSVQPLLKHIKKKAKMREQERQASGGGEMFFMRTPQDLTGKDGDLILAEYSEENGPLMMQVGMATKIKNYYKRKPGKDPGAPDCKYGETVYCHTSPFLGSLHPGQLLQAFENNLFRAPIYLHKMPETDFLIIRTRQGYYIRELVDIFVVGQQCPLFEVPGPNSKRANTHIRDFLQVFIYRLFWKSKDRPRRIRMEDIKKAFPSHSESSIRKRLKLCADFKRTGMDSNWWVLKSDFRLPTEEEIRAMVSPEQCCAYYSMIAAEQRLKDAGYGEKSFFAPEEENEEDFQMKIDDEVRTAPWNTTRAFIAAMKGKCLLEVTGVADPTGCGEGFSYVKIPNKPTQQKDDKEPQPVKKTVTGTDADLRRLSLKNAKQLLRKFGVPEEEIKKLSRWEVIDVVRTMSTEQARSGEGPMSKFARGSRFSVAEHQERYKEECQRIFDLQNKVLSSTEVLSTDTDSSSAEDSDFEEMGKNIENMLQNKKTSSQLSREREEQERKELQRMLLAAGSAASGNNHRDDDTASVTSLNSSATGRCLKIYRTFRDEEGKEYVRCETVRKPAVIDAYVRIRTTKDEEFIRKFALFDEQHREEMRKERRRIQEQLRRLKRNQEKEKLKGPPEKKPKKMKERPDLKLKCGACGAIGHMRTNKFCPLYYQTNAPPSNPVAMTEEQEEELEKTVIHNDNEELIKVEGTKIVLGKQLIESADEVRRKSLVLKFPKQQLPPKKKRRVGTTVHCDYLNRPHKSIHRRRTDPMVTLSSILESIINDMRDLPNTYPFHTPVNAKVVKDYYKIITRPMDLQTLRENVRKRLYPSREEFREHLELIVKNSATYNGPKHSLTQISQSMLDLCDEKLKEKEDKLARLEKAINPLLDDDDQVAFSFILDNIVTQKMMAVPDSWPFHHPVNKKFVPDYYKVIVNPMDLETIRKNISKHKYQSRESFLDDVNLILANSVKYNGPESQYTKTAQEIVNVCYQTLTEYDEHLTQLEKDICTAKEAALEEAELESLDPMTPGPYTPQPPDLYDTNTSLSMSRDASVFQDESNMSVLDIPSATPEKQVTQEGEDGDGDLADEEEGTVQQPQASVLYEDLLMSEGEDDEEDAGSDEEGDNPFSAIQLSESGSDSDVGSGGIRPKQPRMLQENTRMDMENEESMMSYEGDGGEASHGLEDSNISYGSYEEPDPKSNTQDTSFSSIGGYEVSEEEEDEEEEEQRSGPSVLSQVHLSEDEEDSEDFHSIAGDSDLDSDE
Chain of Bone morphogenetic protein receptor type-1B (O00238 whole entry): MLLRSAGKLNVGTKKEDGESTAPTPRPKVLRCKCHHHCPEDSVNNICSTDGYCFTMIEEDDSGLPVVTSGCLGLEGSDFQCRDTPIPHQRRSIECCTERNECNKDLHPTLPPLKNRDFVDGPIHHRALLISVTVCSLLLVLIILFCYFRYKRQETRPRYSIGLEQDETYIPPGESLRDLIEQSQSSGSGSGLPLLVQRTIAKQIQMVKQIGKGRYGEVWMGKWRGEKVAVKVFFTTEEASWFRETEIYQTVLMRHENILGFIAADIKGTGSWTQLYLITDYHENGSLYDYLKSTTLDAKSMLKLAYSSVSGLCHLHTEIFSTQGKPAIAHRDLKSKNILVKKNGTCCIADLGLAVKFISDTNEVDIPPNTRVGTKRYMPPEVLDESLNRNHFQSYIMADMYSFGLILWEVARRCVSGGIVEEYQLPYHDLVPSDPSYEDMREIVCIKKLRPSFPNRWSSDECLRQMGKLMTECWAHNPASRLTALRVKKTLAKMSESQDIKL

The molecule `CN(C)C/C=C/C(=O)Nc1ccc(C(=O)N2CCCC(Nc3ncc(Cl)c(-c4c[nH]c5ccccc45)n3)C2)cc1` (configuration not stated) returned a % of control in test [1] of 84%.

For `Cc1cc([C@@H](C)Nc2ccccc2C(=O)O)c2nc(N3CCOCC3)cc(=O)n2c1` [AZD-6482], the % of control in test [2] is 100%.

Molecule `Cc1cc(CN)cc(C)c1-c1ncn(C)c1-c1cncn1C` registered a dTM in test [3] of -1.17 K.

Turning to `CCC(=O)N1CCN(c2ccc(-n3c(=O)ccc4cnc5ccc(-c6cnc7ccccc7c6)cc5c43)cc2C(F)(F)F)CC1`, in test [4], the % of control was found to be 52%.

As to `O[C@H]1CC[C@H](Nc2ncc3nc(Nc4c(F)cc(F)cc4F)n([C@H]4CCOC4)c3n2)CC1`, the % of control is 100% in test [5] and 79% in test [6].

Molecule `COCC(=O)NC/C=C/c1ccc2ncnc(Nc3ccc(Oc4ccc(C)nc4)c(C)c3)c2c1` [CP-724714] had a % of control in test [7] of 4.2%.
